{"source": "paper PMC12066314", "about": "“Apigenin promotes melanogenesis and melanosome transport through the c-KIT/Raf-1/MAPK/CREB pathway in HEMCs” (Frontiers in Pharmacology, 2025)", "target": "c-KIT (Homo sapiens, UniProt P10721)", "sequence (P10721 26-976)": "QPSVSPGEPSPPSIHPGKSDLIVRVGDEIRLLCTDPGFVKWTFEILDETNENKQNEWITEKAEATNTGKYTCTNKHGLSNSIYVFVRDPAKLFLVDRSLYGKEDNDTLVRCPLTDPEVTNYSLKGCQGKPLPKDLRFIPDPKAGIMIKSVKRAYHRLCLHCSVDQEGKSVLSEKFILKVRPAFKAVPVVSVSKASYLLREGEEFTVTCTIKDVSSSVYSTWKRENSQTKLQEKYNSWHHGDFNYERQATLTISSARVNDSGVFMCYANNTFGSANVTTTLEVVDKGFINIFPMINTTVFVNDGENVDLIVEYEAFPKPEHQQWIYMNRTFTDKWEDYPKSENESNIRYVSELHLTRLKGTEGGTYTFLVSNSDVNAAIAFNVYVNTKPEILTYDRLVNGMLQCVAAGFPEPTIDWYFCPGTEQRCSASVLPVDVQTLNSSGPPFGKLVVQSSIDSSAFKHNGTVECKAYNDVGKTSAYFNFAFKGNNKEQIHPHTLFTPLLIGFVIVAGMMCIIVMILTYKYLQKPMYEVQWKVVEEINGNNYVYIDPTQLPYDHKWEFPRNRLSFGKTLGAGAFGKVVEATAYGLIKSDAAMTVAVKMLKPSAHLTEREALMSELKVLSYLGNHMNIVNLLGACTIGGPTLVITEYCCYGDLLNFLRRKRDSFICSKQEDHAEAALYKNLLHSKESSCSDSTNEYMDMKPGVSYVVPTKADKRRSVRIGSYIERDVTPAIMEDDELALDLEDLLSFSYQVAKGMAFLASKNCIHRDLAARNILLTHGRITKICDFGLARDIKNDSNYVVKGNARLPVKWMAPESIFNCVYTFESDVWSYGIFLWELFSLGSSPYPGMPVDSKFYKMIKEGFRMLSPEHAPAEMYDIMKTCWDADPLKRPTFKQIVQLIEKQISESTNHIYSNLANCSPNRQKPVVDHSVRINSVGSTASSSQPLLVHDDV", "experiment": "microscale thermophoresis (MST), […] target", "type": "binding"}
{"smiles": "O=c1cc(-c2ccc(O)cc2)oc2cc(O)cc(O)c12", "note": "[Apigenin]", "values": [{"measurement": "Kd", "value": 2600, "unit": "nM"}]}
